Assay results taken from patent publication US12643887B2, “Heterocyclic derivatives with cardiomyocyte proliferation activity for treatment of heart diseases” (Tongji University, priority 2019, dated 2026).

Biological target: T1, human GSK3 beta (Homo sapiens, UniProt P49841)
T1 construct: Recombinant full-length human GSK3 beta (expressed in Sf9 insect cells with an N-terminal His tag); His (N); purchased SignalChem G09-10H; host or cells: Sf9 insect cells
Assay: GSK3 beta enzyme assay (ADP-Glo)
Assay type: biochemical
Details: ATP 25 μM, read-out: GSK3b IC50
Procedure: 1. GSK3 Beta Enzyme Assay
The ability of compounds to inhibit human GSK3 beta kinase activities was determined using a commercially available ADP-Glo™ Kinase Assay kit (Promega, Cat #V9102) according to the manufacturer's protocol. The ADP-Glo™ Kinase Assay is a luminescent ADP detection assay that provides a universal, homogeneous, high-throughput screening method to measure kinase activity by quantifying the amount of ADP produced during a kinase reaction. The ADP-Glo™ Kinase Assay can be used to monitor the activity of virtually any ADP-generating enzymes (e.g., kinases or ATPases).
Recombinant full-length human GSK3 beta (expressed in Sf9 insect cells with an N-terminal His tag) was purchased from SignalChem (Cat #G09-10H). The GSK3 substrate peptide (sequence: […](pS)EDEEE) was purchased from SignalChem (Cat #G50-58). This assay, run in a 384-well plate format, is a generic method for measuring kinase activities using an ADP-Glo Kinase Assay Kit. The basic assay procedure involves two steps: (1) Enzymatic step: inhibitors are incubated with the kinase and then ATP (included in the ADP-Glo Kinase Assay Kit) and the GSK3 substrate peptide are added to start the enzymatic reaction; (2) Detection step: after the kinase reaction, first ADP-Glo™ Reagent is added to terminate the kinase reaction and deplete the remaining ATP. Second, the Kinase Detection Reagent is added to simultaneously convert ADP to ATP and allow the newly synthesized ATP to be measured using a luciferase/luciferin reaction. The light generated is measured using a luminometer.
(§1) Briefly, GSK3 beta (4 nM) in the enzymatic buffer solutions (40 mM Tris, pH 7.5, 20 mM MgCl2, 0.1 mg/ml BSA, 50 μM DTT) were mixed with various concentrations of inhibitors (dissolved in 100% DMSO). These solutions were incubated for 30 minutes at 25° C., and subsequently a mixture of substrate peptide and ATP was added with the final peptide and ATP concentrations at 13 μM and 25 μM, respectively. The final reaction mixture of enzyme-substrate-ATP-compound was incubated for 60 minutes at 25° C.
Afterwards ADP-Glo™ Reagent was added and the mixture was incubated at 25° C. for 60 minutes. Then Kinase Detection Reagent was added and the final mixture was incubated at 25° C. for 60 minutes. The luminescence signal of the final solution was measured on an Envision instrument (PerkinElmer). The percent (%) inhibition at each concentration of a compound is calculated relative to the luminescence signal in the Max and Min control wells contained within each assay plate. […] The concentrations and percent inhibition values for a test compound are plotted and the concentration of the compound required to achieve 50% inhibition (IC50) is determined with a four-parameter logistic dose response equation.

T1 sequence (P49841 whole entry): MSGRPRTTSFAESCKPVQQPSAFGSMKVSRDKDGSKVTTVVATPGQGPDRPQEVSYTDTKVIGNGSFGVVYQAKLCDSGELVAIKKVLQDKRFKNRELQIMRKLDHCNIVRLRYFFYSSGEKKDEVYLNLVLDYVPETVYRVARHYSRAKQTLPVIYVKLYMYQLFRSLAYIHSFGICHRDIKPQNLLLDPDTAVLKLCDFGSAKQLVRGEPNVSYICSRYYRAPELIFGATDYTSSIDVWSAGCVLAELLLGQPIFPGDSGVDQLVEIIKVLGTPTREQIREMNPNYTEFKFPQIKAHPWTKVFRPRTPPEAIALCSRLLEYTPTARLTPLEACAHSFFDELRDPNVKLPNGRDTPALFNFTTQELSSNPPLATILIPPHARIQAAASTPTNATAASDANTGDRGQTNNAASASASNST

First: O=C1NC(Nc2ccccc2)=N/C1=C\c1ccc2ncsc2c1 [Example 6, (Z)-5-(benzo[d]thiazol-6-ylmethylene)-2-(phenylamino)-3,5-dihydro-4H-imidazol-4-one]
Second: O=C1NC(Nc2ccccc2)=N/C1=C\c1ccc2sccc2c1 [Example 72, (Z)-5-(benzo[b]thiophen-5-ylmethylene)-2-(phenylamino)-3,5-dihydro-4H-imidazol-4-one]
The IC50 of the first is lower: 0.1 to 1 µM for the first, greater than 10 µM for the second. The first is the more potent here.

First: O=C1NC(Nc2ccccc2)=N/C1=C\c1ccc2nn[nH]c2c1 [Example 56, (Z)-5-((1H-benzo[d][1,2,3]triazol-6-yl)methylene)-2-(phenylamino)-3,5-dihydro-4H-imidazol-4-one]
Second: O=C1NC(Nc2ccccc2)=N/C1=C\c1ccc2cc[nH]c2c1 [Example 73, (Z)-5-((1H-indol-6-yl)methylene)-2-(phenylamino)-3,5-dihydro-4H-imidazol-4-one]
The IC50 of the first is lower: 1 to 10 µM for the first, greater than 10 µM for the second.

First: O=C1NC(Nc2ccc3ncsc3c2)=N/C1=C\c1ccc2scnc2c1 [Example 57, (Z)-5-(benzo[d]thiazol-5-ylmethylene)-2-(benzo[d]thiazol-6-ylamino)-3,5-dihydro-4H-imidazol-4-one]
Second: O=C1NC(Nc2ccc3ncsc3c2)=N/C1=C\c1ccc2nc[nH]c2c1 [Example 76, (Z)-5-((1H-benzo[d]imidazol-6-yl)methylene)-2-(benzo[d]thiazol-6-ylamino)-3,5-dihydro-4H-imidazol-4-one]
The IC50 of the first is higher: greater than 10 µM for the first, 0.1 to 1 µM for the second.

First: O=C1NC(Nc2ccc3ncsc3c2)=N/C1=C\c1ccc2[nH]ccc2c1 [Example 58, (Z)-5-((1H-indol-5-yl)methylene)-2-(benzo[d]thiazol-6-ylamino)-3,5-dihydro-4H-imidazol-4-one]
Second: O=C1NC(Nc2ccc3[nH]ccc3c2)=N/C1=C\c1ccc2ncsc2c1 [Example 69, (Z)-2-((1H-indol-5-yl)amino)-5-(benzo[d]thiazol-6-ylmethylene)-3,5-dihydro-4H-imidazol-4-one]
The IC50 of the first is higher: greater than 10 µM for the first, 0.1 to 1 µM for the second.

`O=C1NC(Nc2ccc3ncsc3c2)=N/C1=C\c1ccc2occc2c1` [Example 59, (Z)-2-(benzo[d]thiazol-6-ylamino)-5-(benzofuran-5-ylmethylene)-3,5-dihydro-4H-imidazol-4-one] and `O=C1NC(Nc2ccc3ncsc3c2)=N/C1=C\c1ccc2cc[nH]c2c1` [Example 63, (Z)-5-((1H-indol-6-yl)methylene)-2-(benzo[d]thiazol-6-ylamino)-3,5-dihydro-4H-imidazol-4-one] cannot be ordered by IC50: greater than 10 µM for the first, greater than 10 µM for the second.

Compared with `O=C1NC(Nc2ccc3ncsc3c2)=N/C1=C\c1ccc2cccnc2c1` [Example 60, (Z)-2-(benzo[d]thiazol-6-ylamino)-5-(quinolin-7-ylmethylene)-3,5-dihydro-4H-imidazol-4-one], `Cn1cnc2ccc(/C=C3\N=C(Nc4ccc5ncsc5c4)NC3=O)cc21` [Example 75, (Z)-2-(benzo[d]thiazol-6-ylamino)-5-((1-methyl-1H-benzo[d]imidazol-6-yl)methylene)-3,5-dihydro-4H-imidazol-4-one] is lower in IC50: greater than 10 µM for the first, 0.1 to 1 µM for the second.

First: Cn1cnc2cc(NC3=N/C(=C\c4ccc5ncsc5c4)C(=O)N3)ccc21 [Example 61, (Z)-5-(benzo[d]thiazol-6-ylmethylene)-2-((1-methyl-1H-benzo[d]imidazol-5-yl)amino)-3,5-dihydro-4H-imidazol-4-one]
Second: Cn1ncc2cc(/C=C3\N=C(Nc4ccc5ncsc5c4)NC3=O)ccc21 [Example 78, (Z)-2-(benzo[d]thiazol-6-ylamino)-5-((1-methyl-1H-indazol-5-yl)methylene)-3,5-dihydro-4H-imidazol-4-one]
The IC50 of the first is lower: 0.1 to 1 µM for the first, greater than 10 µM for the second. The first is the more potent here.

`Cn1cnc2cc(/C=C3\N=C(Nc4ccccc4)NC3=O)ccc21` [Example 71, (Z)-5-((1-methyl-1H-benzo[d]imidazol-5-yl)methylene)-2-(phenylamino)-3,5-dihydro-4H-imidazol-4-one] and `Cn1ncc2cc(/C=C3\N=C(Nc4ccccc4)NC3=O)ccc21` [Example 77, (Z)-5-((1-methyl-1H-indazol-5-yl)methylene)-2-(phenylamino)-3,5-dihydro-4H-imidazol-4-one] cannot be ordered by IC50: greater than 10 µM for the first, greater than 10 µM for the second.

First: O=C1NC(Nc2ccc3ncsc3c2)=N/C1=C\c1ccc2c(c1)OCCO2 [Example 74, (Z)-2-(benzo[d]thiazol-6-ylamino)-5-((2,3-dihydrobenzo[b][1,4]dioxin-6-yl)methylene)-3,5-dihydro-4H-imidazol-4-one]
Second: O=C1NC(Nc2ccc3c(c2)OCCO3)=N/C1=C\c1ccc2ncsc2c1 [Example 81, (Z)-5-(benzo[d]thiazol-6-ylmethylene)-2-((2,3-dihydrobenzo[b][1,4]dioxin-6-yl)amino)-3,5-dihydro-4H-imidazol-4-one]
The IC50 of the first is higher: greater than 10 µM for the first, 0.1 to 1 µM for the second. The second is the more potent here.

`Cn1ncc2ccc(/C=C3\N=C(Nc4ccccc4)NC3=O)cc21` [Example 79, 5-((1-methyl-1H-indazol-6-yl)methylene)-2-(phenylamino)-3,5-dihydro-4H-imidazol-4-one] and `Cn1ncc2ccc(/C=C3\N=C(Nc4ccc5ncsc5c4)NC3=O)cc21` [Example 80, (Z)-2-(benzo[d]thiazol-6-ylamino)-5-((1-methyl-1H-indazol-6-yl)methylene)-3,5-dihydro-4H-imidazol-4-one] cannot be ordered by IC50: greater than 10 µM for the first, greater than 10 µM for the second.

`O=C1NC(Nc2ccc3ncsc3c2)=NC1Cc1ccc2ncsc2c1` (stereo not shown) [Example 102, 2-(benzo[d]thiazol-6-ylamino)-5-(benzo[d]thiazol-6-ylmethyl)-3,5-dihydro-4H-imidazol-4-one] and `O=C1NC(N(CC2CC2)c2ccc3ncsc3c2)=N/C1=C\c1ccc2ncsc2c1` [Example 105, (Z)-2-(benzo[d]thiazol-6-yl(cyclopropylmethyl)amino)-5-(benzo[d]thiazol-6-ylmethylene)-3,5-dihydro-4H-imidazol-4-one] cannot be ordered by IC50: greater than 10 µM for the first, greater than 10 µM for the second.

In the case of `O=C1NC(Nc2ccc3nc(Nc4ccccc4)sc3c2)=N/C1=C\c1ccc2ncsc2c1` [Example 104, (Z)-5-(benzo[d]thiazol-6-ylmethylene)-2-((2-(phenylamino)benzo[d]thiazol-6-yl)amino)-3,5-dihydro-4H-imidazol-4-one], the IC50 is reported as greater than 10 µM.

Biological target: T2, human CK2a2 (CSNK2a2) (Homo sapiens, UniProt P19784)
T2 construct: Recombinant human CK2a2 (CSNK2a2) (full length); GST (N); purchased SignalChem C71-10G; host or cells: Sf9 insect cells
T2 sequence (P19784 whole entry): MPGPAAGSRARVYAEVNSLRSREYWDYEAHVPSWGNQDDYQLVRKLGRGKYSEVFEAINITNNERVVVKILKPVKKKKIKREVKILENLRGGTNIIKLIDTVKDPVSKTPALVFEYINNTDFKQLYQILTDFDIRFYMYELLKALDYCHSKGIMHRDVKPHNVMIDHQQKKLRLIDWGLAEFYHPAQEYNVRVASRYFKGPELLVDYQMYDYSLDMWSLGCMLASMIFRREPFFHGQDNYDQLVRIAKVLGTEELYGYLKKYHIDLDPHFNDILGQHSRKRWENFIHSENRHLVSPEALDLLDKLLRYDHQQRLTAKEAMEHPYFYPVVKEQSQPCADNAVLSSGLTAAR
Assay: CK2a2 (CSNK2a2) enzyme assay (ADP-Glo)
Assay type: biochemical
Details: ADP-Glo, ATP 15 μM; read-out: CK2 alpha 2 IC50
Procedure: 8. CK2a2 (CSNK2a2) Enzyme Assay
The ability of compounds to inhibit human CK2a2 (CSNK2a2) kinase activities was determined using a commercially available ADP-Glo™ Kinase Assay kit (Promega, Cat #V9102) according to the manufacturer's protocol.
Recombinant human CK2a2 (CSNK2a2) (full length) (expressed in Sf9 insect cells with an N-terminal GST tag) was purchased from SignalChem (Cat #C71-10G). CK2 substrate (sequence: […]) was purchased from SignalChem (Cat #C08-58). This assay, run in a 384-well plate format, is a generic method for measuring kinase activities using an ADP-Glo Kinase Assay Kit. The basic assay procedure involves two steps: (1) Enzymatic step: inhibitors are incubated with the kinase and then ATP (included in the ADP-Glo Kinase Assay Kit) and the MBP protein are added to start the enzymatic reaction; (2) Detection step: after the kinase reaction, first ADP-Glo™ Reagent is added to terminate the kinase reaction and deplete the remaining ATP. Second, the Kinase Detection Reagent is added to simultaneously convert ADP to ATP and allow the newly synthesized ATP to be measured using a luciferase/luciferin reaction. The light generated is measured using a luminometer.
as §1, with “Briefly, CK2a2 (CSNK2a2) (7” for “Briefly, GSK3 beta (4”, “at 0.04 mg/ml” for “at 13 μM”, “and 15” for “and 25”, “for 90” for “for 60”
Afterwards ADP-Glo™ Reagent was added and the mixture was incubated at 25° C. for 60 minutes. Then Kinase Detection Reagent was added, and the final mixture was incubated at 25° C. for 60 minutes. The luminescence signal of the final solution was measured on an Envision instrument (PerkinElmer). The percent (%) inhibition at each concentration of a compound is calculated relative to the luminescence signal in the Max and Min control wells contained within each assay plate. […] The concentrations and percent inhibition values for a test compound are plotted and the concentration of the compound required to achieve 50% inhibition (IC50) is determined with a four-parameter logistic dose response equation.

First: CN(C1=N/C(=C\c2ccc3c(c2)OCO3)C(=O)N1)c1ccccc1 [Example 1, (Z)-5-(benzo[d][1,3]dioxol-5-ylmethylene)-2-(methyl(phenyl)amino)-3,5-dihydro-4H-imidazol-4-one]
Second: O=C1NC(Nc2ccccc2)=N/C1=C\c1ccc2ncsc2c1 [Example 6, (Z)-5-(benzo[d]thiazol-6-ylmethylene)-2-(phenylamino)-3,5-dihydro-4H-imidazol-4-one]
The IC50 of the first is higher: 0.1 to 1 µM for the first, less than 0.1 µM for the second. The second is the more potent here.
